Results published in patent EP4810040A2, “INHIBITORS OF APOL1 AND METHODS OF USING SAME” (priority 2020, dated 2022).

Molecular target: T1, APOL1 G1 (Homo sapiens, UniProt O14791, I384M/S342G)
T1 sequence (O14791 28-398 S342G/I384M): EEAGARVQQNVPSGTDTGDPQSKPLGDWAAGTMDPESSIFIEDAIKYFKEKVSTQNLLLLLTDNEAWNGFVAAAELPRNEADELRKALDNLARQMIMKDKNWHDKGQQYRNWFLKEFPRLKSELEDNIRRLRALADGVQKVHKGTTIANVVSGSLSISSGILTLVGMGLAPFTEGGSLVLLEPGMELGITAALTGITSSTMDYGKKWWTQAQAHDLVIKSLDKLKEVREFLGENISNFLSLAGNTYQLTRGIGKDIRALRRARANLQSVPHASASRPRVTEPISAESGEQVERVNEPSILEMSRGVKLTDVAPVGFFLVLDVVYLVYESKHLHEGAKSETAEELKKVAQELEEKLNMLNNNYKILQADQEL
Assay: MultiTox-Fluor Multiplex Cytotoxicity Assay, tet-inducible APOL1 G1 T-REx-HEK293 cells
Assay type: cell-based
Set-up: expressed in transfected cells; host or cells: T-REx HEK293, clone G1 DC3.25 (pAAVS1-Puro-APOL1 G1)
Conditions: for IC90: HEK293, Multi-Tox Assay, APOL1 variant (G0/G1/G2) of the HEK293 cells not given, read-out: Multi-Tox Assay IC90; for Emax / Multi-Tox Assay Max Activity (%): Multi-Tox Assay, APOL1 variant not given; for Emax: read-out: Multi-Tox Assay Max Activity (%)
Experimental: The MultiTox-Fluor Multiplex Cytotoxicity Assay is a single-reagent-addition, homogeneous, fluorescence assay that measures the number of live and dead cells simultaneously in culture wells. The assay measures cell viability and cytotoxicity by detecting two distinct protease activities. The live-cell protease activity is restricted to intact viable cells and is measured using a fluorogenic, cell-permeant peptide glycyl-phenylalanylamino fluorocoumarin (GF-AFC) substrate. The substrate enters intact cells, where it is cleaved to generate a fluorescent signal proportional to the number of living cells. […] A second, cell-impermeant, fluorogenic peptide substrate (bis-AAF-R110 Substrate) is used to measure dead-cell protease that has been released from cells that have lost membrane integrity. A ratio of dead to live cells is used to normalize data.
Briefly, the tet-inducible transgenic APOL1 T-REx-HEK293 cell lines were incubated with 50 ng/mL tet to induce APOL1 in the presence of 3-(2-(4-fluorophenyl)-1H-indol-3-yl)-N-((3S,4R)-4-hydroxy-2-oxopyrrolidin-3-yl)propenamide at […], 0.0045, 0.0015, 0.0005 µM in duplicate for 24 hours in a humidified 37°C incubator. The MultiTox reagent was added to each well and placed back in the incubator for an additional 30 minutes. The plate was read on the EnVision plate reader. A ratio of dead to live cells was used to normalize, and data was imported, analyzed and fit using Genedata Screener (Basel, Switzerland) software. Data was normalized using percent of control, no tet (100% viability), and 50 ng/mL tet treated (0% viability),and fit using Smart Fit. The reagents, methods, and complete protocol for the MultiTox assay are described below. Table 42. Reagents Used in the Multi-Tox Assay
Human embryonic kidney (HEK293) cell lines containing a tet-inducible expression system (T-REx™; Invitrogen, Carlsbad, CA) and Adeno-associated virus site 1 pAA VS1-Puro-APOL1 G0 or pAAVS1-Puro-APOL1 G1 or pAAVS1-Puro-APOL1 G2 Clones G0 DC2.13, G1 DC3.25, and G2 DC4.44 were grown in a T-225 flask at ~90% confluency in cell growth media (DMEM, 10% Tet-free FBS, 2 mM L-glutamine, 100 Units/mL penicillin-streptomycin, 5 µg/mL blasticidin S HCl, 1 µg/mL puromycin dihydrochloride). Cells were washed with DPBS and then trypsinized to dissociate from the flask. Media was used to quench the trypsin, cells were then pelleted at 200g and resuspended in fresh cell assay media (DMEM, 2% Tet-free FBS, 2 mM L-glutamine, 100 Units/mL penicillin-streptomycin). Cells were counted and diluted to 1.17 x 10^6 cells/mL. 20 µL of cells (23,400/well) were dispensed to every well of a 384-well Poly-D-Lysine coated plate using the Multidrop dispenser. The plates were then incubated at room temperature for one hour.
Tetracycline is needed to induce APOL1 expression. 1 mg/mL tet stock in water was diluted to 250 ng/mL (5X) in cell assay media. 60 µL of cell assay media (no tet control) was dispensed in columns 1 and 24, and 60 µL of 5X tet was dispensed in 384-PP-round bottom plate in columns 2 to 23 with the Multidrop dispenser.
Assay ready plates from the Global Compound Archive were ordered using template 384_APOL1Cell_DR10n2_50uM_v3. Compounds were dispensed at 200 nL in DMSO. The final top concentration was 10 µM with a 10 point 3-fold dilution in duplicate in the MultiTox assay.
20 µL were transferred from the 5X tet plate to the ARP and mixed, then 5 µL of 5X tet and the compounds were transferred to the cell plate and mixed using the Bravo. The cell plate was placed in the humidified 37°C 5% CO2 incubator for 24 hours.
The MultiTox-Fluor Multiplex Cytotoxicity Assay was performed in accordance with the manufacturer's protocol. […]

| Compound | IC90 [nM] | Emax [%] | Multi-Tox Assay Max Activity (%) |
| --- | --- | --- | --- |
| COc1ccc(C2CC3(CC(C)N2)OCCc2cc(Cl)sc23)nn1 (mixture of isomers) [Compound 76] | < 50 | 99.3 |  |
| COc1cccc(C2CC3(CC(C)N2)OCCc2cc(Cl)sc23)n1 (mixture of isomers) [Compound 135] | 50 to 500 |  | 98.0 |
| CC1CC2(CC(C)N1)OCCc1cc(Cl)sc12 (mixture of isomers) [Compound 194, 2-chloro-2',6'-dimethyl-spiro[4,5-dihydrothieno[2,3-c]pyran-7,4'-piperidine]] | 50 to 500 | 98.7 |  |
| CC1CC2(CC(CO)N1)OCCc1cc(Cl)sc12 (mixture of isomers) [Compound 210, (2-chloro-6'-methyl-spiro[4,5-dihydrothieno[2,3-c]pyran-7,4'-piperidine]-2'-yl)methanol] | > 500 | 92.2 |  |
| CC1CC2(CC(C(C)C)N1)OCCc1cc(Cl)sc12 (mixture of isomers) [Compound 214] | 50 to 500 | 99.3 |  |
| CCC1CC2(CC(C)N1)OCCc1cc(Cl)sc12 (mixture of isomers) [Compound 215] | 50 to 500 | 99.3 |  |
| CC1CC2(CC(C3CCOCC3)N1)OCCc1cc(Cl)sc12 (mixture of isomers) [Compound 216] | > 500 | 97.7 |  |
| CC1CC2(CC(C3CC3)N1)OCCc1cc(Cl)sc12 (mixture of isomers) [Compound 217] | < 50 | 99.2 |  |
| CC1CC2(CC(C3CCC3)N1)OCCc1cc(Cl)sc12 (mixture of isomers) [Compound 218] | 50 to 500 | 99.3 |  |
| CC1CC2(CC(c3cccnc3)N1)OCCc1cc(Cl)sc12 (racemic) [Compound 20, 2-chloro-2'-methyl-6'-(3-pyridyl)spiro[4,5-dihydrothieno[2,3-c]pyran-7, 4'-piperidine]] | < 50 | 99.4 |  |
| Cc1cc([C@@H]2C[C@]3(C[C@H](C)N2)OCCc2cc(Cl)sc23)ccn1 (racemic) [Compound 21, (2S)-2-chloro-2'-methyl-6'-(2-methyl-4-pyridyl)spiro[4,5-dihydrothieno[2,3-c]pyran-7,4'-piperidine]] | < 50 | 99.7 |  |
| Cc1noc2cc([C@@H]3C[C@]4(C[C@H](C)N3)OCCc3cc(Cl)sc34)ccc12 (racemic) [Compound 25] | < 50 |  | 100.0 |
| C[C@H]1C[C@@]2(C[C@@H](c3cnc4c(cnn4C)c3)N1)OCCc1cc(Cl)sc12 (racemic) [Compound 26] | < 50 |  | 100.0 |
| COc1ccc([C@@H]2C[C@]3(C[C@H](C)N2)OCCc2cc(Cl)sc23)c(F)c1 (racemic) [Compound 44] | < 50 |  | 99.5 |
| C[C@H]1C[C@@]2(C[C@@H](c3ccc(C(N)=O)cc3)N1)OCCc1cc(Cl)sc12 (racemic) [Compound 47] | < 50 | 99.3 |  |
| Cc1n[nH]c2ncc([C@@H]3C[C@]4(C[C@H](C)N3)OCCc3cc(Cl)sc34)cc12 (racemic) [Compound 48] | < 50 |  |  |
| COc1ccc([C@@H]2C[C@]3(C[C@H](C)N2)OCCc2cc(Cl)sc23)cn1 (racemic) [Compound 49] | < 50 | 99.7 |  |
| CC(=O)Nc1ccc([C@@H]2C[C@]3(C[C@H](C)N2)OCCc2cc(Cl)sc23)cc1 (racemic) [Compound 50] | < 50 |  | 99.7 |

| Compound | IC90 [nM] | Emax [%] | Multi-Tox Assay Max Activity (%) |
| --- | --- | --- | --- |
| C[C@H]1C[C@@]2(C[C@@H](c3cnc(C4CC4)nc3)N1)OCCc1cc(Cl)sc12 (racemic) [Compound 52] | < 50 |  | 99.7 |
| C[C@H]1C[C@@]2(C[C@@H](c3cccc(C#N)n3)N1)OCCc1cc(Cl)sc12 (racemic) [Compound 53] | < 50 |  | 99.3 |
| Cc1ccc([C@@H]2C[C@]3(C[C@H](C)N2)OCCc2cc(Cl)sc23)cn1 (racemic) [Compound 55] | < 50 |  | 99.7 |
| C[C@H]1C[C@@]2(C[C@@H](c3cnn(CCO)c3)N1)OCCc1cc(Cl)sc12 (racemic) [Compound 56] | < 50 |  | 99.8 |
| C[C@H]1C[C@@]2(C[C@@H](c3cnc(N)nc3)N1)OCCc1cc(Cl)sc12 (racemic) [Compound 57] | < 50 |  | 99.7 |
| Cc1ccc([C@@H]2C[C@]3(C[C@H](C)N2)OCCc2cc(Cl)sc23)nn1 (racemic) [Compound 58] | < 50 |  | 99.7 |
| C[C@H]1C[C@@]2(C[C@@H](c3ccc(O)cn3)N1)OCCc1cc(Cl)sc12 (racemic) [Compound 59] | < 50 |  | 99.3 |
| CNc1ncc([C@@H]2C[C@]3(C[C@H](C)N2)OCCc2cc(Cl)sc23)cn1 (racemic) [Compound 60] | < 50 |  | 99.7 |
| COc1ccc([C@@H]2C[C@]3(C[C@H](C)N2)OCCc2cc(Cl)sc23)cc1C#N (racemic) [Compound 62] | < 50 | 99.3 |  |
| C[C@H]1C[C@@]2(C[C@@H](c3cnc(C(N)=O)cn3)N1)OCCc1cc(Cl)sc12 (racemic) [Compound 63] | < 50 | 99.8 |  |
| Cc1cncc([C@@H]2C[C@]3(C[C@H](C)N2)OCCc2cc(Cl)sc23)c1 (racemic) [Compound 64] | < 50 | 100 |  |
| C[C@H]1C[C@@]2(C[C@@H](c3cnn(-c4ccccc4)c3)N1)OCCc1cc(Cl)sc12 (racemic) [Compound 65] | < 50 | 99.5 |  |
| Cc1cc([C@@H]2C[C@]3(C[C@H](C)N2)OCCc2cc(Cl)sc23)on1 (racemic) [Compound 66] | < 50 | 99.8 |  |
| C[C@H]1C[C@@]2(C[C@@H](c3ccc4cn[nH]c4c3)N1)OCCc1cc(Cl)sc12 (racemic) [Compound 67] | < 50 | 99.7 |  |
| C[C@H]1C[C@@]2(C[C@@H](c3ccc(O)nc3)N1)OCCc1cc(Cl)sc12 (racemic) [Compound 68] | < 50 | 99.7 |  |
| CCOc1ccc([C@@H]2C[C@]3(C[C@H](C)N2)OCCc2cc(Cl)sc23)nc1 (racemic) [Compound 69] | < 50 | 99.7 |  |
| C[C@H]1C[C@@]2(C[C@@H](c3cnc(-c4ccccc4)o3)N1)OCCc1cc(Cl)sc12 (racemic) [Compound 70] | < 50 | 99.3 |  |
| C[C@H]1C[C@@]2(C[C@@H](c3ccc(C(=O)NC4CC4)cc3)N1)OCCc1cc(Cl)sc12 (racemic) [Compound 71] | < 50 | 100 |  |
